Source: US20190046539A1, “PROPHYLACTIC OR THERAPEUTIC AGENT FOR NEUROPATHIC PAIN ASSOCIATED WITH GUILLAIN-BARRE SYNDROME” (KYUSHU UNIVERSITY, priority 2011, published 2019)

Key:
[1] = test system: experimental autoimmune neuritis (EAN) rat model; assay: Preventive administration, pain threshold of EAN rat model; assay type: in vivo; conditions: preventive continuous administration into the subarachnoid space by Micro Infusion Pump from immunization with P2 peptide-adjuvant; male LEW/CrlCrlj rat; FIG. 2
Text: (§1) The effect of P2X4 receptor antagonist on neuropathic pain was examined using an experimental autoimmune neuritis (EAN) rat model (Examples 3 and 4), which has been used as an experimental model for Guillain-Barré syndrome ([…]).
Six-week-old male LEW/CrlCrlj rat was acclimatized for about one week, and an indwelling polystyrene catheter with a 0.30 mm outside diameter was placed into the subarachnoid space. Three days or more after indwelling of the catheter for administration into the subarachnoid space, the rat was anesthetized with isoflurane, and an adjuvant or P2 peptide-adjuvant solution was administered by intradermal tale base injection in an amount of 80 μg/80 μL/rat. The compound A was continuously administered by Micro Infusion Pump (Primetech). The pump was placed at the same time of administration of P2 peptide-adjuvant.

[2] = test system: experimental autoimmune neuritis (EAN) rat model; assay: Therapeutic administration, pain threshold of EAN rat model; assay type: in vivo; conditions: therapeutic administration into the subarachnoid space from thirteen days after immunization (average manifestation score 2 or more); male LEW/CrlCrlj rat; FIG. 3
Text: as §1
Six-week-old male LEW/CrlCrlj rat was acclimatized for about one week, and an indwelling polystyrene catheter with a 0.30 mm outside diameter was placed into the subarachnoid space. Three days or more after indwelling of the catheter for administration into the subarachnoid space, the rat was anesthetized with isoflurane, and an adjuvant or P2 peptide-adjuvant solution was administered by intradermal tale base injection in an amount of 80 μg/80 μL/rat. Micro Infusion Pump was simultaneously placed into the back of the rat, and administration of the vehicle into the subarachnoid space was initiated. After immunization, symptom was observed (Table 2), and change of pain threshold was observed.

## O=C1CC(=O)N(c2cccc(-c3nnn[nH]3)c2)c2ccc3ccccc3c2N1.[K] [Compound A, 5-[3-(1H-tetrazol-5-yl)phenyl]-1H-naphtho[1,2-b][1,4]diazepine-2,4(3H,5H)-dione potassium salt]
[1]
  influence on pain threshold (allodynia): suppress pains in initial and later manifestations of the disease
[2]
  influence on pain threshold (analgesic effect): significant analgesic effect on pain in later manifestation of the disease
